Assay results reported in US8343959B2, “N-phenyl-(piperazinyl or homopiperazinyl)-benzenesulfonamide or benzenesulfonyl-phenyl-(piperazine or homopiperazine) compounds suitable for treating disorders that respond to modulation of the serotonin 5-HT6 receptor” (Abbott GmbH & Co. KG, priority 2009, dated 2013).
Structures can show the parent of a compound that is named as a salt.

Each molecule was assayed against T1, h-5-HT6 receptor (Homo sapiens, UniProt P50406) (assay: 5-HT6 receptor binding assay (displacement of [3H]-LSD)). Conditions: not given.
T1 construct: expressed in transfected cells
Experimental: Displacement of Radioligands Binding to The Following Cloned Human Receptors
Cells from stable clonal cell lines expressing the corresponding receptor (5-HT6, α1-adrenergic, dopamine D2 or histamine H1 receptors) were washed with PBS (w/o Ca^++, Mg^++) and harvested in PBS with 0.02% EDTA. The cells were collected by centrifugation at 500 g for 10 min. at 4° C., washed with PBS and centrifuged (500 g, 10 min. 4° C.). The pellets were stored at −80° C. until use. For membrane preparation, the thawed cell pellet was resuspended in ice-cold sucrose buffer (0.25 M sucrose, 10 mM Hepes (pH 7.4), 1 mM Phenylmethylsulfonyl fluoride (PMSF) in DMSO, 5 μg/ml Pepstatin-A, 3 mM EDTA, 0.025% Bacitracin) and homogenized with a Branson Sonifier W-250 (Settings: Timer 4; Output Control 3; Duty Cycle constant; 2 to 3 cycles). Cell disruption was checked with the aid of a microscope. Remaining unbroken cells were pelleted at 1.000 g for 10 min. at 4° C. The sucrose buffer supernatant was then centrifuged at 60.000 g for 1 h at 4° C. (Beckman Ultrazentrifuge XL 80). The pellet was resuspended in 30 ml ice-cold Tris buffer (20 mM TRIS (pH 7.4), 5 μg/ml Pepstatin A, 0.1 mM PMSF, 3 mM EDTA) by pipetting through a 10 ml serological pipet and centrifuged for 1 h at 4° C. at 60.000 g. A final resuspension was performed in a small volume of ice-cold Tris buffer (see above) by pressing through a serological pipet followed by ultrasonic treatment with a Branson Sonifier W-250 (Settings: Timer 1; Output Control 3; Duty Cycle constant; 1 cycle). Protein concentration was determined (BCA-Kit; Pierce) and aliquots stored at −80° C. or in liquid nitrogen for long-term storage.
All receptor binding experiments were carried out in the corresponding assay buffer in a total volume of 200 μl in the presence of various concentrations of test compound (10^−5 M to 10^−9 M, tenfold serial dilution, duplicate determinations). The assays were terminated by filtration on polyethylenimine (PEI 0.1% or 0.3%) presoaked Packard Unifilter Plates (GF/C or GF/B) with a Tomtec Machin U 96 well-plate harvester. After the plates had been dried for 2 h at 55° C. in a drying chamber scintillation cocktail (BetaPlate Scint; PerkinElmer) was added. Radioactivity was measured in a Microbeta Trilux two hours after the addition of the scintillation mixture. Data derived from liquid scintillation counting were analysed by iterative non-linear regression analysis with the use of the Statistical Analysis System (SAS): a program similar to “LIGAND” as described by Munson and Rodbard (Analytical Biochemistry 107, 220-239 (1980).
HEK293 cells stably expressing the h-5-HT6 receptor (NCBI Reference Sequence XM 001435) were cultured in RPMI1640 medium supplemented with 25 mM HEPES, 10% fetal calf serum and 1-2 mM glutamine. The membrane preparation was performed as described in section 1. […] Non-specific binding was defined with 1 μM methiothepin. The binding reaction was carried out for 3.5 h at room temperature. During the incubation, the plates were shaken on a plate shaker at 100 rpm and terminated by filtration on Packard Unifilter GF/C (0.1% PEI) plates, followed by 2 wash cycles with ice-cold 50 mM Tris-HCl, 5 mM CaCl2.
Data derived from liquid scintillation counting were analyzed by iterative non-linear regression analysis with the use of the Statistical Analysis System (SAS): a program similar to “LIGAND” as described by Munson and Rodbard (Anal. Biochem. 1980, 107, 220-239). Fitting was performed according to formulae described by Feldman (Anal. Biochem. 1972, 48, 317-338). IC50, nH and Ki values were expressed as geometrical mean.

T1 sequence (P50406 whole entry): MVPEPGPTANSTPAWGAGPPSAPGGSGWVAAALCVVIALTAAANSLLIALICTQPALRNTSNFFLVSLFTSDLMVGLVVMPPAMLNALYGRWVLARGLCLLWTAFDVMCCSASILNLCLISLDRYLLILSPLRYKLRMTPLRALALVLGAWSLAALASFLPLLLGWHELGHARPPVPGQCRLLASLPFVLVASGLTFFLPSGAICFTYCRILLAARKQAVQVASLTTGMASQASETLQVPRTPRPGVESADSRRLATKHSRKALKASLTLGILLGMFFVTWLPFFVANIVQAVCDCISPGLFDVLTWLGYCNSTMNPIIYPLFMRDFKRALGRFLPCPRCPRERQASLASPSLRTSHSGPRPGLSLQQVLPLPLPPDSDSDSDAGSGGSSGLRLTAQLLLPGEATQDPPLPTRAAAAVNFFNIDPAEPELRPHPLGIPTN

Compound	Ki [nM]
Cc1ccc(S(=O)(=O)Nc2cccc(OC(F)F)c2)cc1N1CCNCC1 [Example 1, N-(3-Difluoromethoxy-phenyl)-4-methyl-3-piperazin-1-yl-benzenesulfonamide hydrochloride]	< 10

Same assay, conditions: membranes of HEK293 cells expressing h-5-HT6 receptor, 1 nM [3H]-LSD; read-out: Ki (5HT6)

Compound	Ki [nM]
COc1cc(NS(=O)(=O)c2ccc(C)c(N3CCNCC3)c2)ccc1OC(F)F [Example 76, N-(4-Difluoromethoxy-3-methoxy-phenyl)-4-methyl-3-piperazin-1-yl-benzenesulfonamide]	< 50
Cc1ccc(S(=O)(=O)Nc2ccc(OC(F)F)cc2)cc1N1CCN(C)CC1 [Example 88, N-(4-Difluoromethoxy-phenyl)-4-methyl-3-(4-methyl-piperazin-1-yl)-benzenesulfonamide hydrochloride]	< 500
Cc1ccc(S(=O)(=O)N(C)c2cccc(OC(F)F)c2)cc1N1CCNCC1 [Example 14, N-(3-Difluoromethoxy-phenyl)-4,N-dimethyl-3-piperazin-1-yl-benzenesulfonamide hydrochloride]	< 100
Cc1ccc(S(=O)(=O)Nc2cccc3c2OC(F)(F)O3)cc1N1CCNCC1 [Example 8, N-(2,2-Difluoro-benzo[1,3]dioxol-4-yl)-4-methyl-3-piperazin-1-yl-benzenesulfonamide hydrochloride]	< 500
COc1ccc(OC(F)F)cc1NS(=O)(=O)c1ccc(C)c(N2CCN(C)CC2)c1 [Example 77, N-(5-Difluoromethoxy-2-methoxy-phenyl)-4-methyl-3-(4-methyl-piperazin-1-yl)-benzenesulfonamide trifluoroacetate]	< 50
CCN(c1ccccc1OC(F)F)S(=O)(=O)c1ccc(C)c(N2CCNCC2)c1 [Example 15, N-(2-Difluoromethoxy-phenyl)-N-ethyl-4-methyl-3-piperazin-1-yl-benzene sulfonamide hydrochloride]	< 500
Cc1ccc(S(=O)(=O)Nc2ccc(F)cc2OC(F)F)cc1N1CCNCC1 [Example 74, N-(2-Difluoromethoxy-4-fluoro-phenyl)-4-methyl-3-piperazin-1-yl-benzenesulfonamide hydrochloride]	< 50
COc1ccc(NS(=O)(=O)c2ccc(C)c(N3CCNCC3)c2)cc1OC(F)F [Example 85, N-(3-Difluoromethoxy-4-methoxy-phenyl)-4-methyl-3-piperazin-1-yl-benzenesulfonamide hydrochloride]	< 500
Cc1ccc(S(=O)(=O)Nc2cc(Cl)ccc2OC(F)F)cc1N1CCN(C)CC1 [Example 56, N-(5-Chloro-2-difluoromethoxy-phenyl)-4-methyl-3-(4-methyl-piperazin-1-yl)-benzenesulfonamide hydrochloride]	< 50
Cc1ccc(S(=O)(=O)N(c2ccccc2OC(F)F)C(C)C)cc1N1CCNCC1 [Example 39, N-(2-Difluoromethoxy-phenyl)-N-isopropyl-4-methyl-3-piperazin-1-yl-benzenesulfonamide hydrochloride]	< 500
Cc1ccc(S(=O)(=O)N(C)c2ccccc2OC(F)F)cc1N1CCNCC1 [Example 16, N-(2-Difluoromethoxy-phenyl)-N-methyl-4-methyl-3-piperazin-1-yl-benzene sulfonamide hydrochloride]	< 500
COc1ccc(OC(F)F)cc1NS(=O)(=O)c1ccc(C)c(N2CCNCC2)c1 [Example 80, N-(5-Difluoromethoxy-2-methoxy-phenyl)-4-methyl-3-piperazin-1-yl-benzenesulfonamide trifluoroacetate]	< 50
COc1ccc(S(=O)(=O)Nc2cccc3c2OC(F)(F)O3)cc1N1CCNCC1 [Example 40, N-(2,2-Difluoro-benzo[1,3]dioxol-4-yl)-4-methoxy-3-piperazin-1-yl-benzenesulfonamide hydrochloride]	< 50
Cc1ccc(S(=O)(=O)Nc2ccc(OC(F)F)c(OC(F)F)c2)cc1N1CCNCC1 [Example 52, N-(3,4-Bis-difluoromethoxy-phenyl)-4-methyl-3-piperazin-1-yl-benzenesulfonamide hydrochloride]	< 50
CCN(c1cccc(OC(F)F)c1)S(=O)(=O)c1ccc(C)c(N2CCNCC2)c1 [Example 13, N-(3-Difluoromethoxy-phenyl)-N-ethyl-4-methyl-3-piperazin-1-yl-benzene sulfonamide hydrochloride]	< 50
COc1cc(NS(=O)(=O)c2ccc(OC)c(N3CCN(C)CC3)c2)ccc1OC(F)F [Example 90, N-(4-Difluoromethoxy-3-methoxy-phenyl)-4-methoxy-3-(4-methyl-piperazin-1-yl)-benzenesulfonamide]	< 50

Other lines, results leading:

Ki [nM]	Compound
< 10	CCCN(c1ccc(OC)c(OC(F)F)c1)S(=O)(=O)c1ccc(OC)c(N2CCNCC2)c1 [Example 33, N-(3-Difluoromethoxy-4-methoxy-phenyl)-4-methoxy-3-piperazin-1-yl-N-propyl-benzenesulfonamide hydrochloride]
< 10	COc1ccc(S(=O)(=O)N(C)c2cccc(OC(F)F)c2)cc1N1CCNCC1 [Example 32, N-(3-Difluoromethoxy-phenyl)-4-methoxy-N-methyl-3-piperazin-1-yl-benzenesulfonamide hydrochloride]
< 10	CCN(c1ccc(OC)c(OC(F)F)c1)S(=O)(=O)c1ccc(OC)c(N2CCNCC2)c1 [Example 30, N-(3-Difluoromethoxy-4-methoxy-phenyl)-N-ethyl-4-methoxy-3-piperazin-1-yl-benzenesulfonamide hydrochloride]
< 10	COc1ccc(S(=O)(=O)Nc2cc(Cl)ccc2OC(F)F)cc1N1CCNCC1 [Example 57, N-(5-Chloro-2-difluoromethoxy-phenyl)-4-methoxy-3-piperazin-1-yl-benzenesulfonamide hydrochloride]
< 10	Cc1ccc(S(=O)(=O)Nc2cc(Cl)ccc2OC(F)F)cc1N1CCNCC1 [Example 71, N-(5-Chloro-2-difluoromethoxy-phenyl)-4-methyl-3-piperazin-1-yl-benzenesulfonamide hydrochloride]
< 10	Cc1ccc(OC(F)F)c(NS(=O)(=O)c2ccc(C)c(N3CCN[C@H](C)C3)c2)c1 [Example 63, N-(2-Difluoromethoxy-5-methyl-phenyl)-4-methyl-3-((R)-3-methyl-piperazin-1-yl)-benzenesulfonamide hydrochloride]
< 10	COc1cc(NS(=O)(=O)c2ccc(OC)c(N3CCNCC3)c2)ccc1OC(F)F [Example 93, N-(4-Difluoromethoxy-3-methoxy-phenyl)-4-methoxy-3-piperazin-1-yl-benzenesulfonamide hydrochloride]
< 10	Cc1ccc(OC(F)F)c(NS(=O)(=O)c2ccc(C)c(N3CCN[C@@H](C)C3)c2)c1 [Example 64, N-(2-Difluoromethoxy-5-methyl-phenyl)-4-methyl-3-((S)-3-methyl-piperazin-1-yl)-benzenesulfonamide hydrochloride]
< 10	CCCN(c1ccccc1OC(F)F)S(=O)(=O)c1ccc(OC)c(N2CCNCC2)c1 [Example 36, N-(2-Difluoromethoxy-phenyl)-4-methoxy-3-piperazin-1-yl-N-propyl-benzenesulfonamide hydrochloride]
< 10	O=S(=O)(c1cccc(OC(F)F)c1)c1cccc(N2CCNCC2)c1 [Example 45, 1-[3-(3-Difluoromethoxy-benzenesulfonyl)-phenyl]-piperazine hydrochloride]
< 10	COc1ccc(S(=O)(=O)Nc2ccc(C)cc2OC(F)F)cc1N1CCNCC1 [Example 73, N-(2-Difluoromethoxy-4-methyl-phenyl)-4-methoxy-3-piperazin-1-yl-benzenesulfonamide hydrochloride]
